# From patent publication US4205163A, “Tylosin derivatives” (Sanraku-Ocean Co., Ltd., priority 1977, dated 1980)
# Key:
# Experiment in all cases: antimicrobial activity, broth dilution method
# Assay type in all cases: cell-based
# [1] = system: Bacillus cereus ATCC 9634; conditions: broth dilution; for MIC: Bacillus cereus, ATCC9634, Bacillus cereus ATCC 9634, read-out: minimum inhibitory concentration (MIC)
# Description: (§1) Antimicrobial activity of the new antibiotics according to the present invention was measured on various pathogenic microorganisms by the broth dilution mehtod. Tab. […] The new antibiotics show a similar antimicrobial spectrum to that of tylosin as shown in Tab. 4. All the compounds have an excellent antimicrobial activity mainly on gram-positive bacteria. […] Test microorganisms with an asterisk mark (*) in Tab. 4 are all drug-resistant strains that were clinically isolated. More in detail, Staphylococcus aureus MS-8710 is resistant to tylosin, penicillin, tetracycline, erythromycin and leucomycin. Staphylococcus aureus MS-9931 is resistant to tylosin, penicillin, erythromycin, tetracycline, leucomycin, spiramycin and josamycin. And also Streptococcus piogenes is resistant to tylosin, erythromycin, oleandomycin and leucomycin.
# Sarcina lutea ATCC 9341 = conditions: for MIC: Micrococcus luteus, ATCC9341, Sarcina lutea ATCC 9341, read-out: minimum inhibitory concentration (MIC)
# Description: as §1
# [2] = system: Staphylococcus aureus FDA-209P; conditions: Staphylococcus aureus FDA-209P, broth dilution; for MIC: Staphylococcus aureus, FDA209P, read-out: minimum inhibitory concentration (MIC)
# Description: as §1
# [3] = system: Staphylococcus aureus MS-8710; conditions: for MIC: Staphylococcus aureus, MS8710, Staphylococcus aureus MS-8710, drug-resistant clinical isolate, read-out: minimum inhibitory concentration (MIC)
# Description: as §1
# [4] = system: Staphylococcus aureus MS-9931; conditions: Staphylococcus aureus MS-9931, drug-resistant clinical isolate; for MIC: MS9931, read-out: minimum inhibitory concentration (MIC)
# Description: as §1
# [5] = system: Staphylococcus aureus MS-9937; conditions: Staphylococcus aureus MS-9937, drug-resistant clinical isolate; for MIC: MS9937, read-out: minimum inhibitory concentration (MIC)
# Description: as §1
# [6] = system: Staphylococcus aureus SMITH; conditions: Staphylococcus aureus SMITH, broth dilution; for MIC: Staphylococcus aureus, read-out: minimum inhibitory concentration (MIC)
# Description: as §1
# [7] = system: Streptococcus pyogenes MH-771; conditions: for MIC: Streptococcus pyogenes, MH771, Streptococcus pyogenes MH-771, drug-resistant clinical isolate, read-out: minimum inhibitory concentration (MIC)
# Description: as §1
Compound,MIC [1],MIC (Sarcina lutea ATCC 9341),MIC [2],MIC [3],MIC [4],MIC [5],MIC [6],MIC [7],minimum inhibitory concentration (MIC) ([1]; Bacillus cereus ATCC 9634),minimum inhibitory concentration (MIC) (Sarcina lutea ATCC 9341; Sarcina lutea ATCC 9341),minimum inhibitory concentration (MIC) [2],"minimum inhibitory concentration (MIC) ([3]; Staphylococcus aureus MS-8710, drug-resistant clinical isolate)",minimum inhibitory concentration (MIC) [4],minimum inhibitory concentration (MIC) [5],minimum inhibitory concentration (MIC) [6],"minimum inhibitory concentration (MIC) ([7]; Streptococcus pyogenes MH-771, drug-resistant clinical isolate)"
"CCC1OC(=O)CC(O)C(C)C(OC2OC(C)C(OC3CC(C)(O)C(OC(=O)CSc4ccc(C)cc4)C(C)O3)C(N(C)C)C2O)C(CC=O)CC(C)C(=O)C=CC(C)=CC1COC1OC(C)C(O)C(OC)C1OC (stereo not drawn) [Compound 35, 4""-(4-methylphenyl)thioacetyltylosin]",1.56 µg/mL,0.78 µg/mL,1.56 µg/mL,25 µg/mL,25 µg/mL,50 µg/mL,1.56 µg/mL,12.5 µg/mL,–,–,–,–,–,–,–,–
"CCC1OC(=O)CC(OC(C)=O)C(C)C(OC2OC(C)C(OC3CC(C)(O)C(OC(=O)C(OC(C)=O)c4ccccc4)C(C)O3)C(N(C)C)C2O)C(CC=O)CC(C)C(=O)C=CC(C)=CC1COC1OC(C)C(O)C(OC)C1OC [Compound 20, 3-acetyl-4""-L-(α-acetoxyphenylacetyl)tylosin]",–,–,–,–,–,–,–,–,1.56 µg/mL,0.39 µg/mL,0.78 µg/mL,50 µg/mL,100 µg/mL,100 µg/mL,1.56 µg/mL,12.5 µg/mL
"CCC1OC(=O)CC(O)C(C)C(OC2OC(C)C(OC3CC(C)(O)C(O)C(C)O3)C(N(C)C)C2OC(=O)CCl)C(CC=O)CC(C)C(=O)C=CC(C)=CC1COC1OC(C)C(O)C(OC)C1OC (stereo not drawn) [2'-monochloroacetyltylosin, reference compound]",1.56 µg/mL,0.39 µg/mL,1.56 µg/mL,> 200 µg/mL,200 µg/mL,200 µg/mL,1.56 µg/mL,> 200 µg/mL,–,–,–,–,–,–,–,–
"CCC1OC(=O)CC(OC(C)=O)C(C)C(OC2OC(C)C(OC3CC(C)(O)C(OC(=O)Cc4cccnc4)C(C)O3)C(N(C)C)C2O)C(CC=O)CC(C)C(=O)C=CC(C)=CC1COC1OC(C)C(O)C(OC)C1OC (stereo not drawn) [Compound 31, 3-acetyl-4""-(3-pyridyl)acetyltylosin]",0.39 µg/mL,0.19 µg/mL,0.39 µg/mL,12.5 µg/mL,12.5 µg/mL,12.5 µg/mL,0.39 µg/mL,6.25 µg/mL,–,–,–,–,–,–,–,–
"CCC1OC(=O)CC(OC(C)=O)C(C)C(OC2OC(C)C(OC3CC(C)(O)C(OC(=O)C(O)c4ccccc4)C(C)O3)C(N(C)C)C2O)C(CC=O)CC(C)C(=O)C=CC(C)=CC1COC1OC(C)C(O)C(OC)C1OC [Compound 18, 3-acetyl-4""-L-(α-hydroxyphenylacetyl)tylosin]",0.78 µg/mL,0.39 µg/mL,0.78 µg/mL,25 µg/mL,–,–,0.78 µg/mL,–,–,–,–,–,–,–,–,–

# Further molecules by falling MIC [1], results first:
MIC [1],MIC (Sarcina lutea ATCC 9341),MIC [2],MIC [3],MIC [4],MIC [5],MIC [6],MIC [7],Compound,minimum inhibitory concentration (MIC) ([1]; Bacillus cereus ATCC 9634),minimum inhibitory concentration (MIC) (Sarcina lutea ATCC 9341; Sarcina lutea ATCC 9341),minimum inhibitory concentration (MIC) [2],"minimum inhibitory concentration (MIC) ([3]; Staphylococcus aureus MS-8710, drug-resistant clinical isolate)",minimum inhibitory concentration (MIC) [4],minimum inhibitory concentration (MIC) [5],minimum inhibitory concentration (MIC) [6],"minimum inhibitory concentration (MIC) ([7]; Streptococcus pyogenes MH-771, drug-resistant clinical isolate)"
1.56 µg/mL,0.78 µg/mL,1.56 µg/mL,100 µg/mL,100 µg/mL,100 µg/mL,1.56 µg/mL,100 µg/mL,"CCC1OC(=O)CC(OC(C)=O)C(C)C(OC2OC(C)C(OC3CC(C)(O)C(O)C(C)O3)C(N(C)C)C2OC(C)=O)C(CC=O)CC(C)C(=O)C=CC(C)=CC1COC1OC(C)C(OC(=O)CCl)C(OC)C1OC (stereo not drawn) [Compound 3, 3,2'-diacetyl-4'""-monochloroacetyltylosin]",–,–,–,–,–,–,–,–
0.78 µg/mL,0.19 µg/mL,0.39 µg/mL,12.5 µg/mL,25 µg/mL,12.5 µg/mL,0.39 µg/mL,6.25 µg/mL,"CCC(C(=O)OC1C(C)OC(OC2C(C)OC(OC3C(CC=O)CC(C)C(=O)C=CC(C)=CC(COC4OC(C)C(O)C(OC)C4OC)C(CC)OC(=O)CC(O)C3C)C(O)C2N(C)C)CC1(C)O)c1ccccc1 (stereo not drawn) [Compound 16, 4""-α-phenyl-n-butyryltylosin]",–,–,–,–,–,–,–,–
0.78 µg/mL,0.39 µg/mL,0.78 µg/mL,12.5 µg/mL,25 µg/mL,12.5 µg/mL,0.78 µg/mL,6.25 µg/mL,"CCCCCC(=O)OC1C(C)OC(OC2C(C)OC(OC3C(CC=O)CC(C)C(=O)C=CC(C)=CC(COC4OC(C)C(O)C(OC)C4OC)C(CC)OC(=O)CC(O)C3C)C(O)C2N(C)C)CC1(C)O (stereo not drawn) [Compound 7, 4""-n-caproyl(or n-hexanoyl)tylosin]",–,–,–,–,–,–,–,–
0.78 µg/mL,0.19 µg/mL,0.39 µg/mL,25 µg/mL,25 µg/mL,25 µg/mL,0.78 µg/mL,12.5 µg/mL,"CCC(CC)C(=O)OC1C(C)OC(OC2C(C)OC(OC3C(CC=O)CC(C)C(=O)C=CC(C)=CC(COC4OC(C)C(O)C(OC)C4OC)C(CC)OC(=O)CC(OC(C)=O)C3C)C(O)C2N(C)C)CC1(C)O (stereo not drawn) [Compound 13, 3-acetyl-4""-α-ethyl-n-butyryltylosin]",–,–,–,–,–,–,–,–
